{
  "source": "patent US10821069B2",
  "about": "“Aqueous extract of truffle and cosmetic composition thereof” (ISP INVESTMENTS LLC, priority 2014, dated 2020)",
  "tested_on": "Normal human keratinocytes",
  "experiment": "Mitochondrial ROS production after rotenone-induced production of ROS (MITOSOX staining)",
  "type": "cell-based",
  "conditions": "1 μM Rotenone for 4 hours, no extract",
  "description": "The purpose of this study is to determine the influence of the Truffle extract according to example 2 regarding the mitochondrial Reactive oxygen Species (ROS) production. Mitochondrial ROS were induced by rotenone, an electron transport chain complex inhibitor.\nMethod: Normal human keratinocytes extracted from a […] […] abdominal skin were seeded in 8 well culture PERMANOX® plastic slides (Thermo Scientific, Waltham, Mass., USA). Cells were pre-treated with two applications per day of the Truffle extract of example 2 (at 0.01% and 0.05%) for 48 h in KSFM medium (Gibco, Auckland, NZ) supplemented with 50 μg·ml-1 bovine pituitary extract (Gibco), 5 ng·ml-1 human recombinant EGF (Gibco) and 0.1 mg·ml-1 PRIMOCIN™ (Invivogen, San Diego, Calif., USA). Then cells were submitted to 1 μM Rotenone application for 4 hours. Immediately after the stress, culture medium was replaced with fresh KSFM for 1 hour. At the end of incubation, a 5 μM MITOSOX® (Life Technologies, Carlsbad, Calif., USA) solution was incubated further for 20 min at 37° C. in 5% CO2 atmosphere. […] Digital images were acquired with an inverted Zeiss Axiovert 200M microscope (Zeiss, Oberkochen, Germany) with a 20× objective. […] Statistical significance of the data was assessed by paired Student's t-test (n=3, p<0.05 was considered significant; p<0.01 as very significant and p<0.005 as highly significant).",
  "data": [
    {"smiles": "C=C(C)[C@H]1Cc2c(ccc3c2O[C@@H]2COc4cc(OC)c(OC)cc4[C@@H]2C3=O)O1", "note": "[rotenone]", "values": [
      {"measurement": "increase in ROS production in keratinocytes compared to untreated control", "result": 45, "unit": "%"}
    ]}
  ]
}
